Reference: patent US20240285586A1, “METHODS FOR TREATING BACTERIAL CELL POPULATIONS” (THE HONG KONG POLYTECHNIC UNIVERSITY, priority 2021, published 2024)
“And” between values parts separate entries of the source, which are not always exact repeats. Equal entries are not always repeated. Residues, ends and D or L forms follow the SMILES beside them. *: point of attachment. βNA = c1ccc2cc(N*)ccc2c1

What was measured:
[1] = system: E. coli BW25113 wild type; experiment: Antibiotic accumulation assay (BOCILLIN, flow cytometry), wild type; type: cell-based, Escherichia coli; conditions: 24 hrs starvation, BOCILLIN 10 μg/mL
Experimental: (§1) Antibiotic accumulation assay. The overnight bacteria culture was diluted 100-fold in LB broth and cultivated for about 1 hr until the OD600 value reached 0.2 (exponential phase). Aliquots of this exponential phase culture were washed and re-suspended in saline, cultured at 37° C. under constant shaking (250 rpm) for 24 hrs, followed by addition of CCCP (1 μM). After 5 mins, BOCILLIN™ FL Penicillin (10 μg/mL) was added and incubated at 37° C. with shaking at 250 rpm for 1 hr. Upon washing twice with PBS, fluorescence signal was measured by flow cytometry CytoFLEX (Beckman). Microorganisms were identified by FSC (forward scatter) and SSC (side scatter) parameters. Fluorescence intensity was measured at 488-nm excitation, 525-nm emission.

[2] = system: E. coli ΔpspA; experiment: Antibiotic accumulation assay (BOCILLIN, flow cytometry), ΔpspA; type: cell-based, Escherichia coli; conditions: 24 hrs starvation, no CCCP
Experimental: as §1

[3] = system: K. pneumoniae; experiment: Starvation-induced tolerance assay, K. pneumoniae; type: cell-based, Klebsiella pneumoniae
Experimental: (§2) Tolerance assay. […] Standard serial dilution and plating on LB agar was performed before and after ampicillin treatment for 4 hrs, 2 days, 4 days and 6 days to determine the fraction of the test population that survived at different time points during the course of treatment.
(§3) Standard serial dilution and plating on LB agar was performed on samples collected every 24 hrs to assess changes in the size of the sub-population that survived during the treatment process.
(§4) Upon reaching the exponential phase, bacteria were washed and re-suspended in saline (0.9% NaCl), and then incubated at 37° C. under constant shaking (250 rpm/min) for 24 hrs. […] Standard serial dilution and plating on LB agar were performed before and after ampicillin treatment for 4 hrs, 1 day, 2 days and 4 days to determine the fraction of the test population that survived at different time points during the course of treatment.

[4] = system: Gram negative strains; experiment: Minimal inhibitory concentration, Gram negative strains; type: cell-based; conditions: all Gram negative test strains
Source text: Determination of Minimal Inhibitory Concentrations (MICs).

[5] = system: A. baumannii; experiment: Starvation-induced tolerance assay, A. baumannii; type: cell-based, Acinetobacter baumannii
Experimental: as §2, §3, §4

[6] = system: E. coli BW25113; experiment: Starvation-induced tolerance assay, wild type E. coli; type: cell-based, Escherichia coli; conditions: for size of the E. coli population: within 24 hrs
Experimental: as §2, §3, §4

[7] = system: S. typhimurium; experiment: Starvation-induced tolerance assay, S. typhimurium; type: cell-based
Experimental: as §2, §3, §4

[8] = system: S. aureus; experiment: Starvation-induced tolerance assay, S. aureus; type: cell-based, Staphylococcus aureus
Experimental: as §2, §3, §4

[9] = system: E. coli wild type strain; experiment: Assessment of efflux activity (Nile Red); type: cell-based, Escherichia coli; conditions: CCCP 100 μM, within 30 mins, increased from ~6500 RFU
Experimental: Assessment of efflux activity. A10-mL portion of bacterial population which had been subjected to 24 hrs starvation was centrifuged at 6000×g for 5 mins at room temperature. The pellet was re-suspended in PBS containing 1 mM MgCl2(PPB) and adjusted to OD600 0.2. Nile Red which fluoresces only weakly in aqueous solutions but becomes strongly fluorescent in nonpolar environments was added to produce a final concentration of 5 μM followed by incubation at 37° C. for 30 mins, with 250 rpm shaking. CCCP was then added to produce a final concentration of 100 μM; fluorescence was measured for a period of 30 mins by a Clariostar Microplate Reader at an excitation wavelength of 544±10 nm and an emission wavelength of 650±10 nm.

[10] = general statement; cited from earlier work
[11] = system: Escherichia coli BW25113; experiment: Effect of PAβN on bacterial growth rate; type: cell-based; conditions: PAβN 100 μM in LB broth
Experimental: Assessment of effect of PAβN on bacterial growth rate. The overnight culture of the Escherichia coli BW25113 strain was diluted 1:100 in LB Broth, followed by addition of 100 μM PAβN; a sample in which only saline was added was included as negative control. OD600 value was tested at different time points.

[12] = system: E. coli ΔtolC mutant; experiment: Starvation-induced tolerance assay, ΔtolC knockout; type: cell-based, Escherichia coli; conditions: ampicillin for six days
Experimental: as §2

[13] = system: E. coli BW25113 ΔpspA; type: cell-based, Escherichia coli
Experimental: as §2, §3

[14] = system: E. coli BW25113::ΔndhΔnuoI; experiment: Starvation-induced tolerance assay, ΔndhΔnuoI double knockout; type: cell-based, Escherichia coli; conditions: ampicillin for six days
Experimental: as §2

[15] = system: E. coli tolerant cells; experiment: Scanning electron microscopy of tolerant cells; type: cell-based, Escherichia coli; conditions: ampicillin 100 μg/ml and 1000 μg/ml, 24 hours
Experimental: Electron microscopy analysis. E. coli which had been subjected to starvation for 24 hours were treated with econazole alone, ampicillin alone and a combination of econazole and ampicillin for 24 hours, followed by examination under scanning electron microscopy (SEM). Cells treated with saline were included as negative control. Briefly, bacterial cells were fixed in 0.4% polyoxymethylene overnight and then in Osmium tetroxide (OsO4) for 2 hrs, followed by washing for three times with PBS. The cells were then dehydrated using pure ethanol, and infiltrated and embedded in Spurr resin for examination by SEM.

[16] = system: E. coli BW25113::ΔnuoI; experiment: Starvation-induced tolerance assay, ΔnuoI knockout; type: cell-based, Escherichia coli; conditions: 24 hrs starvation, then six days of ampicillin treatment
Experimental: as §2

[17] = system: S. typhimurium PY1; experiment: Mouse peritonitis infection (tolerance sepsis) model; type: in vivo
Experimental: NIH male mice of about six-weeks-old with body weight of ˜20 g were used, 6 mice per group. The animals were allowed to acclimate to the housing facility for 5 days. The mice were made neutropenic by administering 150 mg/kg cyclophosphamide 3 days and 1 day before infection. Different amounts of S. typhimurium strain PY01 (2.8×10^5 CFU, 7.6×10^5 CFU or 1.5×10^6 CFU) were inoculated into the animals via intraperitoneal injection. The mice were subjected to ceftazidime (20 mg/kg), econazole (20 mg/kg) or ceftazidime combining econazole treatment (i.p.) 24 h after inoculation, at 12 hrs intervals for 72 hrs randomly. The mortality rate of the test mice was recorded every 12 hrs. After 72 h of treatment, live mice were euthanized and subjected to peritoneal washes which involved injection of 2 mL of saline into the intraperitoneal space, followed by abdominal massage. The abdomen was then cut open and 200 μL of peritoneal fluid were collected and serially diluted in saline. A 100 μL portion of each dilution was spread on LB plates, followed by incubation overnight at 37° C. Colonies were counted to determine the bacterial load in the test samples, which were expressed as CFU/ml. Statistical analysis and ethic approval were the same as described above.

[18] = system: E. coli J53 (mcr-1); experiment: MIC of colistin in presence and absence of compound, broth dilution; type: cell-based, Escherichia coli; conditions: antibiotic resistant E. coli (FIG. 20)
[19] = system: E. coli; experiment: Membrane potential assay DiSC3(5), E. coli; type: cell-based, Escherichia coli; conditions: valinomycin 1 μM, positive control, exponential phase
Experimental: Membrane potential assay. The transmembrane electrical potential was measured by using a membrane potential-sensitive probe, DiSC3(5). Bacterial population in either the exponential phase (OD600 of 0.2) or under 24 hrs starvation (resuspended in saline) were collected by centrifugation (6000×g, 2 mins), washed twice and re-suspended in PBS (pH 7.4), and then adjusted to OD600 of 0.2. KCl and DiSC3(5) were added until final concentration of 100 mM and 1 μM was respectively reached, followed by incubation at room temperature for 25 mins in the dark to allow the dye to penetrate through the outer membrane and produce a quenching effect. […] The fluorescence reading was monitored by using a Clariostar Microplate Reader (BMG LABTECH) at an excitation wavelength of 622±10 nm and an emission wavelength of 670±10 nm for 10 mins. Upon depolarization, the dye was rapidly released into the medium, resulting in dequenching and facilitating detection fluorometrically. […] The sample preparation method is same as that prior to testing with the Microplate Reader except for the last step. Briefly, cells were washed with PBS three times before confocal observation to remove extracellular DiSC3(5) dye. […] DiSC3(5) was excited by 638 nm laser and fluorescence was detected by HyD detector at emission wavelength 675±25 nm. The images were acquired and analyzed by the Leica Application Suite X (LAS X) software. […]

[20] = system: E. coli BW25113 and its ΔpspA derivative; experiment: Membrane permeability assay (SYTOX Green); type: cell-based, Escherichia coli; conditions: colistin, positive control; similar in wild type and ΔpspA
Experimental: Membrane permeability assay. The membrane permeability or integrity of the test organisms was measured using SYTOX Green (ThermoFisher), which can enter the cell through damaged cell membrane and bind to nucleic acid, generating fluorescence signal. E. coli BW25113 and its ΔpspA derivative at a concentration of OD600 of 0.2, which had been subjected to 24 hrs starvation, were collected by centrifugation (6000×g, 2 mins), washed twice and re-suspended in saline. SYTOX Green was then added to give a final concentration of 1 μM, followed by incubation for 30 min in the dark at room temperature. The relative fluorescence signal in the wild type and ΔpspA strain was measured by a Cary Eclipse Fluorescence Spectrophotometer (Agilent), with an excitation wavelength of 488±10 nm and an emission wavelength of 523±10 nm.

[21] = CCCP 100 μM, absence of ampicillin
[22] = low concentration of CCCP + 10×MIC ampicillin

## Cc1cc(C)n2c1C=C1C=CC(CCC(=O)Nc3ccc(OCC(=O)N[C@@H]4C(=O)N5[C@@H]4SC(C)(C)[C@@H]5C(=O)[O-])cc3)=[N+]1[B-]2(F)F.[Na+] [BOCILLIN]
[1]; absence of CCCP
  cells exhibiting high BOCILLIN intensity (>10^3 RFU): 10.45%
[2]
  cells that exhibited high BOCILLIN level: 18.52%

## N#CC(C#N)=NNc1cccc(Cl)c1 [CCCP, carbonyl cyanide-m-chlorophenylhydrazone]
[3]; [21]
  eradication of tolerant cells: could eradicate tolerant bacteria cells
[3]; [22]
  effect on phenotypic ampicillin tolerance: sufficient to suppress or even completely abolish phenotypic ampicillin tolerance
[1]; CCCP (1 μM) treatment
  cells exhibiting high BOCILLIN intensity (>10^3 RFU): 97.86%
[4]
  MIC: > 160 µM
[5]; [21]
  eradication of tolerant cells: could eradicate tolerant bacteria cells
[5]; [22]
  effect on phenotypic ampicillin tolerance: sufficient to suppress or even completely abolish phenotypic ampicillin tolerance
[6]; CCCP 1 μM + ampicillin, […], after 24 hrs starvation
  population size: ~80 cells/mL
[6]; CCCP 1 μM + ciprofloxacin 0.5 μg/mL
  tolerance to ciprofloxacin: not affected
[6]; CCCP 1 μM + gentamicin 10 μg/mL
  phenotypic tolerance to gentamicin upon PMF dissipation: cannot be maintained
[6]; CCCP 1 μM alone, […], after 24 hrs starvation
  size of the surviving population: remained unchanged
[6]; CCCP 100 μM + ampicillin
  size of the E. coli population: ~2×10^4 cells/mL
[6]; CCCP 100 μM alone, from ~2.5×10^7 cells/mL
  size of the E. coli population: ~5×10^5 cells/mL
[6]; CCCP 100 μM with ampicillin
  time to eradication of the entire antibiotic tolerant population: ≤ 48 h
[6]; CCCP 100 μM without ampicillin
  time to eradication of the entire antibiotic tolerant population: ≤ 48 h
[6]; CCCP (100 μM) + ampicillin
  killing effect compared with CCCP alone: significantly stronger
[6]; CCCP (concentration not stated) and ampicillin, six days
  entire tolerant cell population: ~50 cells/mL
[6]; CCCP alone (100 μM)
  killing of bacterial tolerant cells: kill bacterial tolerant cells
[7]; [21]
  eradication of tolerant cells: could eradicate tolerant bacteria cells
[7]; [22]
  effect on phenotypic ampicillin tolerance: sufficient to suppress or even completely abolish phenotypic ampicillin tolerance
[8]; [21]
  eradication of tolerant cells: could eradicate tolerant bacteria cells
[8]; [22]
  effect on phenotypic ampicillin tolerance: sufficient to suppress or even completely abolish phenotypic ampicillin tolerance
[9]
  Nile Red fluorescence intensity: ~10000 RFU
[10]
  toxicity or safety in human: toxic to human

## N=C(N)NCCC[C@H](NC(=O)[C@@H](N)Cc1ccccc1)C(=O)Nc1ccc2ccccc2c1 [PAβN] (H-Phe-Arg-βNA)
[11]
  effect on bacterial growth: did not exert any negative effect on bacterial growth

## CC1(C)S[C@@H]2[C@H](NC(=O)[C@H](N)c3ccccc3)C(=O)N2[C@H]1C(=O)O [ampicillin]
[12]
  size of the tolerant population: ~5×10^4 cells/mL
[6]; wild type, 24 hrs starvation, then ampicillin 100 μg/mL (~10×MIC) for 6 days
  size of the antibiotic tolerant sub-population: 4×10^6 cells/mL and ~2.5×10^7 cells/mL
[13]; 24 hrs starvation, then ampicillin 100 μg/mL for 6 days
  size of the antibiotic tolerant sub-population: ~3×10^5 cells/mL
[13]; after 6 days of ampicillin treatment
  tolerant sub-population relative to that of wild type: 10%
[14]
  reduction of the tolerant population: ~10^4 fold
  size of the tolerant population: ~200 cells/mL
[15]
  cell morphology under SEM: slight shrinkage in the pole areas
[16]
  population size: ~3.5×10^5 cell/mL

## CC(C)(O/N=C(\C(=O)N[C@@H]1C(=O)N2C(C(=O)[O-])=C(C[n+]3ccccc3)CS[C@H]12)c1csc(N)n1)C(=O)O [ceftazidime]
[7]; ceftazidime alone (100 μg/ml), 96 hrs (FIG. 16F)
  size of the tolerant population: ~1.4×10^7 CFU/mL
[17]; ceftazidime alone 20 mg/kg, 1.5×10^6 CFU
  infected mice rescued: 10%
[17]; ceftazidime alone 20 mg/kg, inoculation of 7.6×10^5 CFU
  protection of the test animals from death: could protect the test animals from being killed
[17]; ceftazidime only 20 mg/kg, lower inoculum (FIG. 19F), P=0.0004
  rate of eradication of PY1 tolerant sub-population compared with the econazole and ceftazidime combination: significantly slower

## C=CCOC(Cn1ccnc1)c1ccc(Cl)cc1Cl (stereo not drawn) [enilconazole]
[18]
  effect of co-administration with colistin: bactericidal synergistic effect

## N#C/C(=C1/SC[C@@H](c2ccc(Cl)cc2Cl)S1)n1ccnc1 [lulionazole]
[18]
  effect of co-administration with colistin: bactericidal synergistic effect

## Clc1ccc(COC(Cn2ccnc2)c2ccc(Cl)cc2Cl)c(Cl)c1 (stereo not drawn) [miconazole]
[18]
  effect of co-administration with colistin: bactericidal synergistic effect

## Clc1ccc(C(Cn2ccnc2)OCc2csc3c(Cl)cccc23)c(Cl)c1 (stereo not drawn) [sertaconazole]
[18]
  effect of co-administration with colistin: bactericidal synergistic effect

## Clc1ccc(C(Cn2ccnc2)OCc2ccsc2Cl)c(Cl)c1 (stereo not drawn) [tioonazole]
[18]
  effect of co-administration with colistin: bactericidal synergistic effect

## CC(C)[C@@H]1NC(=O)[C@H](C)OC(=O)[C@@H](C(C)C)NC(=O)[C@@H](C(C)C)OC(=O)[C@H](C(C)C)NC(=O)[C@H](C)OC(=O)[C@@H](C(C)C)NC(=O)[C@@H](C(C)C)OC(=O)[C@H](C(C)C)NC(=O)[C@H](C)OC(=O)[C@@H](C(C)C)NC(=O)[C@@H](C(C)C)OC1=O [valinomycin]
[19]
  effect on membrane potential (DiSC3(5) fluorescence): caused dissipation of membrane potential

## colistin
[20]
  effect on membrane permeability (SYTOX Green): cause membrane damage and an eventual increase in membrane permeability
